{"source": "patent US20110059941A1", "about": "“2-PHENYL SUBSTITUTED IMIDAZOL [4,5B] PYRIDINE/PYRAZINE AND PURINE DERIVATIVES AS GLUCOKINASE MODULATORS” (priority 2005, published 2011)", "biological_target": "T1, recombinant human pancreatic GLK (Homo sapiens, UniProt P35557)", "T1 sequence (P35557 1-465)": "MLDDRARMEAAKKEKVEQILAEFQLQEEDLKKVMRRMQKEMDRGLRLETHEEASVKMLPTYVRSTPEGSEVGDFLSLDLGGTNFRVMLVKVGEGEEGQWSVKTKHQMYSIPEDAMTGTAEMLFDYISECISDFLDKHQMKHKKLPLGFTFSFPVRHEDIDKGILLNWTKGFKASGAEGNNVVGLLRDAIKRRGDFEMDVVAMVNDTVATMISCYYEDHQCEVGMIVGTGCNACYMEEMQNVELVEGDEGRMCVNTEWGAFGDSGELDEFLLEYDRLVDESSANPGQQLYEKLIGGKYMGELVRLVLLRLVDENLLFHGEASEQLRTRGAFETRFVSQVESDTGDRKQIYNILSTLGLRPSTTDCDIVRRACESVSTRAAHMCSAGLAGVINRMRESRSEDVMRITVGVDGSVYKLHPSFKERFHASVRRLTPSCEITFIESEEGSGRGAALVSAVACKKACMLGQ", "experiment": "biochemical"}
{"smiles": "COC[C@H](C)Oc1cc(OCc2ccccc2)cc(-c2nc3cccnc3[nH]2)c1", "note": "[Example 1, 2-{3-(Benzyloxy)-5-[(1S)-2-methoxy-1-methylethoxy]phenyl}-3H-imidazo[4,5-b]pyridine]", "values": [{"measurement": "EC50", "value": 0.6, "unit": "µM"}]}
